Source: patent publication US5395947A, “Platinum(II) complex and processes for preparing the same” (Sunkyong Industries, Ltd., priority 1991, dated 1995)

How the values were obtained:
[1] = system: murine leukemia L1210 cells; test: Growth inhibition test on cultured murine leukemia L1210 cells; format: cell-based; conditions: 48 hours, 37° C., Trypan blue viability
Summary of the method: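 L1210 cells (1×10^5) exposed to graded compound concentrations in RPMI 1640 with 10% fetal calf serum, 37° C, 5% CO2, 48 h. Viability by 0.17% Trypan blue staining, relative to untreated control cells.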

murine leukemia L1210 = test: Antitumor activity test on murine leukemia L1210 in vivo; set-up: species or system male BDF1 mice; conditions: days 1, 5, 9
Summary of the method: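 Intraperitoneal L1210 model: 1×10^6 cells inoculated i.p. into 6-week-old male BDF1 mice (21±3 g) on day 0, seven per group. Compounds in 0.5% CMC given i.p. on days 1, 5 and 9; vehicle-only controls. T/C % from mean survival time of treated over control.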

[2] = Test for water solubility; format: physicochemical; conditions: water
From the text: 3. Test for water solubility
A standard plot of UV absorbance(220 nm) vs. concentration was made; and employed to determine water-solubility.
The mixture was then passed through a 0.45 micron disposable membrane filter before dilution and UV measurement.

ICR mice = test: Acute toxicity test; format: in vivo; set-up: Lethality: unit not given here; conditions: for Lethality: 10080 min
Summary of the method: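 Male and female 7-week-old ICR mice, 6 per group, dosed intraperitoneally. Signs and survival followed for 7 days, with autopsy of animals that died.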

## NC[C@H]1OC2(CCCCC2)O[C@@H]1CN.O=C1C[O][Pt][O]1 [Example 4, (glycolato-O,O'){cyclohexanespiro-2'-[(4'R,5'R)-4',5'-bis(aminomethyl)-1',3'-dioxolane]}-platinum(II)]
[1]
  IC50 (concentration required for 50% inhibition of growth): 0.08 µg/mL
Murine leukemia L1210; 3.1 mg/kg i.p.
  T/C (%): 102%
Murine leukemia L1210; 6.2 mg/kg i.p.
  T/C (%): 146%
Murine leukemia L1210; 12.5 mg/kg i.p.
  T/C (%): 233%
Murine leukemia L1210; 25 mg/kg i.p.
  T/C (%): 231%
Murine leukemia L1210; 50 mg/kg i.p.
  T/C (%): toxic
[2]
  Solubility in water: 2.9 mg/mL
ICR mice; female, 25.0 mg/kg i.p.
  Number of dead mice for 7 days: 0/6
  Number of dead mice, 1st day: 0/6
ICR mice; female, 32.5 mg/kg i.p.
  Number of dead mice for 7 days: 0/6
  Number of dead mice, 1st day: 0/6
ICR mice; female, 42.3 mg/kg i.p.
  Number of dead mice for 7 days: 0/6
  Number of dead mice, 1st day: 0/6
ICR mice; female, 55.0 mg/kg i.p.
  Number of dead mice for 7 days: 2/6
  Number of dead mice, 1st day: 0/6
  Number of dead mice, 3rd day: 1/6
  Number of dead mice, 4th day: 1/5
  Lethality: 33.3
ICR mice; female, 71.4 mg/kg i.p.
  Number of dead mice for 7 days: 4/6
  Number of dead mice, 1st day: 0/6
  Number of dead mice, 2nd day: 2/6
  Number of dead mice, 3rd day: 1/4
  Number of dead mice, 4th day: 1/3
  Lethality: 66.7
ICR mice; male, 25.0 mg/kg i.p.
  Number of dead mice for 7 days: 0/6
  Number of dead mice, 1st day: 0/6
ICR mice; male, 32.5 mg/kg i.p.
  Number of dead mice for 7 days: 0/6
  Number of dead mice, 1st day: 0/6
ICR mice; male, 42.3 mg/kg i.p.
  Number of dead mice for 7 days: 0/6
  Number of dead mice, 1st day: 0/6
ICR mice; male, 55.0 mg/kg i.p.
  Number of dead mice for 7 days: 3/6
  Number of dead mice, 1st day: 0/6
  Number of dead mice, 2nd day: 2/6
  Number of dead mice, 3rd day: 1/4
  Lethality: 50.0
ICR mice; male, 71.4 mg/kg i.p.
  Number of dead mice for 7 days: 4/6
  Number of dead mice, 1st day: 0/6
  Number of dead mice, 2nd day: 3/6
  Number of dead mice, 3rd day: 1/3
  Lethality: 66.7

## CC1[O][Pt][O]C1=O.NCC1OC2(CCCC2)OC1CN [Example 15, (L-lactato-O,O')[(4R,5R)-4,5-bis(aminomethyl)-1,3-dioxolane-2-spiro-1'-cyclopentane]platinum(II)]
[1]
  IC50 (concentration required for 50% inhibition of growth): 0.33 µg/mL
Murine leukemia L1210; 12.5 mg/kg i.p.
  T/C (%): 225%
Murine leukemia L1210; 25 mg/kg i.p.
  T/C (%): 243%
Murine leukemia L1210; 50 mg/kg i.p.
  T/C (%): 192%
[2]
  Solubility in water: 4.9 mg/mL
ICR mice; female, 41.3 mg/kg i.p.
  Number of dead mice for 7 days: 0/6
  Number of dead mice, 1st day: 0/6
  Lethality: 0.0
ICR mice; female, 54.9 mg/kg i.p.
  Number of dead mice for 7 days: 3/6
  Number of dead mice, 1st day: 0/6
  Number of dead mice, 3rd day: 1/6
  Number of dead mice, 4th day: 1/5
  Number of dead mice, 5th day: 1/4
  Lethality: 50.0
ICR mice; female, 71.4 mg/kg i.p.
  Number of dead mice for 7 days: 5/6
  Number of dead mice, 1st day: 0/6
  Number of dead mice, 4th day: 1/6
  Number of dead mice, 5th day: 3/5
  Number of dead mice, 6th day: 1/2
  Lethality: 83.7
ICR mice; female, 91.8 mg/kg i.p.
  Number of dead mice for 7 days: 6/6
  Number of dead mice, 1st day: 0/6
  Number of dead mice, 2nd day: 1/6
  Number of dead mice, 3rd day: 2/5
  Number of dead mice, 4th day: 2/3
  Number of dead mice, 5th day: 1/1
  Lethality: 100.0
ICR mice; male, 41.3 mg/kg i.p.
  Number of dead mice for 7 days: 0/6
  Number of dead mice, 1st day: 0/6
  Lethality: 0.0
ICR mice; male, 54.9 mg/kg i.p.
  Number of dead mice for 7 days: 4/6
  Number of dead mice, 1st day: 0/6
  Number of dead mice, 3rd day: 2/6
  Number of dead mice, 6th day: 2/4
  Lethality: 66.7
ICR mice; male, 71.4 mg/kg i.p.
  Number of dead mice for 7 days: 5/6
  Number of dead mice, 1st day: 0/6
  Number of dead mice, 4th day: 4/6
  Number of dead mice, 5th day: 1/2
  Lethality: 83.3
ICR mice; male, 91.8 mg/kg i.p.
  Number of dead mice for 7 days: 6/6
  Number of dead mice, 1st day: 0/6
  Number of dead mice, 2nd day: 2/6
  Number of dead mice, 3rd day: 3/4
  Number of dead mice, 4th day: 1/1
  Lethality: 100.0
